Target: T1, human M1 receptor (hCHRM1) (Homo sapiens, UniProt P11229)
T1 construct: expressed in transfected cells; host or cells: CHO-K1
T1 sequence (P11229 1-460): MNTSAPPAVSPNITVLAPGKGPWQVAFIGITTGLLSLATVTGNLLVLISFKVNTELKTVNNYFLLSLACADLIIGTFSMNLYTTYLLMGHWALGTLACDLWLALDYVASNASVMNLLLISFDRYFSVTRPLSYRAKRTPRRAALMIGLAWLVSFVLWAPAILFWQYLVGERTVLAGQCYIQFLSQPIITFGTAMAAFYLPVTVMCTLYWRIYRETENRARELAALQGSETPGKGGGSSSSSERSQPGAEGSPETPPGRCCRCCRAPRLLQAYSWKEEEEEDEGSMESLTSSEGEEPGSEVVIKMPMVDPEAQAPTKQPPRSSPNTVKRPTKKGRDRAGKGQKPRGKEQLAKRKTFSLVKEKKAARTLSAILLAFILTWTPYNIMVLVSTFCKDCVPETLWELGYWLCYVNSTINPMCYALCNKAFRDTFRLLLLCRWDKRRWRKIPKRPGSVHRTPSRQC
Assay: Measurement of M1 receptor positive allosteric modulator (M1PAM) activity, calcium fluorescence (FLIPRtetra) in CHO-K1 cells in the presence of acetylcholine at EC20
Assay type: cell-based
Settings: in the presence of acetylcholine at EC20 (final 0.6 nM), CHO-K1 cells expressing hCHRM1; for EC50: inflection point of M1PAM activity, read-out: IP value; for activity (%) at 10 μM: test compound 10 μM
In short: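 CHO-K1 cells expressing human M1 were loaded with Fluo-4 AM, and compound was added with acetylcholine at EC20 (final 0.6 nM). Calcium fluorescence was read on FLIPRtetra for 1 min. Activity was normalized to 1 μM acetylcholine (100%) and DMSO (0%), and the curve inflection point was reported as IP.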

EC50 [nM]	activity (%) at 10 μM [%]	Compound
14	90	Cc1cc(-c2ccc(CN3Cc4ccnc(Oc5ccc(C(F)F)cc5F)c4C3=O)cc2)ccn1 [Example 379, 4-(4-(difluoromethyl)-2-fluorophenoxy)-2-(4-(2-methylpyridin-4-yl)benzyl)-1,2-dihydro-3H-pyrrolo[3,4-c]pyridin-3-one]
22	102	Cn1ccc(-c2ccc(CN3Cc4ccnc(Oc5ccc(C(F)F)cc5F)c4C3=O)cc2)n1 [Example 380, 4-(4-(difluoromethyl)-2-fluorophenoxy)-2-(4-(1-methyl-1H-pyrazol-3-yl)benzyl)-1,2-dihydro-3H-pyrrolo[3,4-c]pyridin-3-one]
7.8	103	Cc1nn(C)cc1-c1ccc(CN2Cc3ccnc(Oc4ccc(C(F)F)cc4F)c3C2=O)c(F)c1 [Example 381, 4-(4-(difluoromethyl)-2-fluorophenoxy)-2-(4-(1,3-dimethyl-1H-pyrazol-4-yl)-2-fluorobenzyl)-1,2-dihydro-3H-pyrrolo[3,4-c]pyridin-3-one]
48	86	Cc1cc(-c2ccc(CN3Cc4ccnc(Oc5ccc(Cl)cc5F)c4C3=O)cc2)ccn1 [Example 383, 4-(4-chloro-2-fluorophenoxy)-2-(4-(2-methylpyridin-4-yl)benzyl)-1,2-dihydro-3H-pyrrolo[3,4-c]pyridin-3-one]
30	102	Cn1cc(-c2ccc(CN3Cc4ccnc(Oc5ccc(Cl)cc5F)c4C3=O)cc2)cn1 [Example 388, 4-(4-chloro-2-fluorophenoxy)-2-(4-(1-methyl-1H-pyrazol-4-yl)benzyl)-1,2-dihydro-3H-pyrrolo[3,4-c]pyridin-3-one]
10	100	Cn1cc(-c2ccc(CN3Cc4ccnc(Oc5ccc(C(F)F)cc5F)c4C3=O)cc2)cn1 [Example 391, 4-(4-(difluoromethyl)-2-fluorophenoxy)-2-(4-(1-methyl-1H-pyrazol-4-yl)benzyl)-1,2-dihydro-3H-pyrrolo[3,4-c]pyridin-3-one]
16	105	Cc1cc(-c2ccc(CN3Cc4ccnc(Oc5ccc(C(F)F)cc5F)c4C3=O)cc2)cnn1 [Example 392, 4-(4-(difluoromethyl)-2-fluorophenoxy)-2-(4-(6-methylpyridazin-4-yl)benzyl)-1,2-dihydro-3H-pyrrolo[3,4-c]pyridin-3-one]
5	89	Cn1cc(-c2ccc(CN3Cc4ccnc(Oc5ccc(C(O)C(F)(F)F)cc5F)c4C3=O)cc2)cn1 (stereo not shown) [Example 393, 4-(2-fluoro-4-(2,2,2-trifluoro-1-hydroxyethyl)phenoxy)-2-(4-(1-methyl-1H-pyrazol-4-yl)benzyl)-1,2-dihydro-3H-pyrrolo[3,4-c]pyridin-3-one]
7.1	109	CC(O)c1ccc(Oc2nccc3c2C(=O)N(Cc2ccc(-c4cnn(C)c4)cc2)C3)c(F)c1 (stereo not shown) [Example 394, 4-(2-fluoro-4-(1-hydroxyethyl)phenoxy)-2-(4-(1-methyl-1H-pyrazol-4-yl)benzyl)-1,2-dihydro-3H-pyrrolo[3,4-c]pyridin-3-one]
20	99	Cc1cc(-c2ccc(CN3Cc4cccc(Oc5c(F)cc(C#N)cc5F)c4C3=O)cc2)cnn1 [Example 398, 3,5-difluoro-4-((2-(4-(6-methylpyridazin-4-yl)benzyl)-3-oxo-2,3-dihydro-1H-isoindol-4-yl)oxy)benzonitrile]
1.8	95	Cn1cc(-c2ccc(CN3Cc4ccnc(Oc5ccc(CC#N)cc5F)c4C3=O)cc2)cn1 [Example 405, (3-fluoro-4-((2-(4-(1-methyl-1H-pyrazol-4-yl)benzyl)-3-oxo-2,3-dihydro-1H-pyrrolo[3,4-c]pyridin-4-yl)oxy)phenyl)acetonitrile]
74	89	Cc1cc(-c2ccc(CN3Cc4ccnc(Oc5ccc(C(F)(F)F)cc5C)c4C3=O)cc2)cnn1 [Example 407, 2-(4-(6-methylpyridazin-4-yl)benzyl)-4-(2-methyl-4-(trifluoromethyl)phenoxy)-1,2-dihydro-3H-pyrrolo[3,4-c]pyridin-3-one]
5.6	99	Cn1cc(-c2ccc(CN3Cc4ccnc(Oc5ccc(C(C)(C)O)cc5F)c4C3=O)cc2)cn1 [Example 408, 4-(2-fluoro-4-(2-hydroxypropan-2-yl)phenoxy)-2-(4-(1-methyl-1H-pyrazol-4-yl)benzyl)-1,2-dihydro-3H-pyrrolo[3,4-c]pyridin-3-one]

Second part, the compound before the results:

Compound	EC50 [nM]	activity (%) at 10 μM [%]
CC(C)n1cc(-c2ccc(CN3Cc4cccc(Oc5c(F)cc(C#N)cc5F)c4C3=O)cn2)cn1 [Example 382, 3,5-difluoro-4-((2-((6-(1-isopropyl-1H-pyrazol-4-yl)pyridin-3-yl)methyl)-3-oxo-2,3-dihydro-1H-isoindol-4-yl)oxy)benzonitrile]	70	99
CC(C)n1cc(-c2ccc(CN3Cc4ccnc(Oc5c(F)cc(C#N)cc5F)c4C3=O)cc2)cn1 [Example 384, 3,5-difluoro-4-((2-(4-(1-isopropyl-1H-pyrazol-4-yl)benzyl)-3-oxo-2,3-dihydro-1H-pyrrolo[3,4-c]pyridin-4-yl)oxy)benzonitrile]	7.8	91
Cc1nn(C)cc1-c1ccc(CN2Cc3ccnc(Oc4c(F)cc(C#N)cc4F)c3C2=O)cc1 [Example 385, 4-((2-(4-(1,3-dimethyl-1H-pyrazol-4-yl)benzyl)-3-oxo-2,3-dihydro-1H-pyrrolo[3,4-c]pyridin-4-yl)oxy)-3,5-difluorobenzonitrile]	2.6	85
Cn1cc(-c2ccc(CN3Cc4ccnc(Oc5c(F)cc(C#N)cc5F)c4C3=O)c(F)c2)cn1 [Example 386, 3,5-difluoro-4-((2-(2-fluoro-4-(1-methyl-1H-pyrazol-4-yl)benzyl)-3-oxo-2,3-dihydro-1H-pyrrolo[3,4-c]pyridin-4-yl)oxy)benzonitrile]	1.4	86
Cn1ccc(-c2ccc(CN3Cc4ccnc(Oc5c(F)cc(C#N)cc5F)c4C3=O)c(F)c2)n1 [Example 387, 3,5-difluoro-4-((2-(2-fluoro-4-(1-methyl-1H-pyrazol-3-yl)benzyl)-3-oxo-2,3-dihydro-1H-pyrrolo[3,4-c]pyridin-4-yl)oxy)benzonitrile]	7.1	102
Cn1cc(-c2ccc(CN3Cc4cccc(Oc5ccc(C(O)C(F)(F)F)cc5F)c4C3=O)nc2)cn1 (stereo not shown) [Example 389, 7-(2-fluoro-4-(2,2,2-trifluoro-1-hydroxyethyl)phenoxy)-2-((5-(1-methyl-1H-pyrazol-4-yl)pyridin-2-yl)methyl)isoindolin-1-one]	32	93
Cn1cc(-c2ccc(CN3Cc4cccc(Oc5ccc(C(O)C(F)(F)F)cc5F)c4C3=O)cn2)cn1 (stereo not shown) [Example 390, 7-(2-fluoro-4-(2,2,2-trifluoro-1-hydroxyethyl)phenoxy)-2-((6-(1-methyl-1H-pyrazol-4-yl)pyridin-3-yl)methyl)isoindolin-1-one]	71	90
Cn1ccc(-c2ccc(CN3Cc4ncnc(Oc5c(F)cccc5F)c4C3=O)cc2)n1 [Example 395, 4-(2,6-difluorophenoxy)-6-(4-(1-methyl-1H-pyrazol-3-yl)benzyl)-6,7-dihydro-5H-pyrrolo[3,4-d]pyrimidin-5-one]	65	96
Cn1cc(-c2ccc(CN3Cc4ncnc(Oc5c(F)cccc5Cl)c4C3=O)cc2)cn1 [Example 396, 4-(2-chloro-6-fluorophenoxy)-6-(4-(1-methyl-TH-pyrazol-4-yl)benzyl)-6,7-dihydro-5H-pyrrolo[3,4-d]pyrimidin-5-one]	33	95
Cn1cc(-c2ccc(CN3Cc4ccnc(Oc5c(F)cccc5Cl)c4C3=O)cc2)cn1 [Example 397, 4-(2-chloro-6-fluorophenoxy)-2-(4-(1-methyl-1H-pyrazol-4-yl)benzyl)-1,2-dihydro-3H-pyrrolo[3,4-c]pyridin-3-one]	25	95
Cc1nn(C)cc1-c1ccc(CN2Cc3ccnc(OC4CCC4)c3C2=O)cc1 [Example 403, 4-(cyclobutyloxy)-2-(4-(1,3-dimethyl-1H-pyrazol-4-yl)benzyl)-1,2-dihydro-3H-pyrrolo[3,4-c]pyridin-3-one]	57	102
CCn1cc(-c2ccc(CN3Cc4ccnc(OC5CCC5)c4C3=O)cc2)cn1 [Example 404, 4-(cyclobutyloxy)-2-(4-(1-ethyl-1H-pyrazol-4-yl)benzyl)-1,2-dihydro-3H-pyrrolo[3,4-c]pyridin-3-one]	53	87
Cn1cc(-c2ccc(CN3Cc4ccnc(Oc5cc(CC#N)ccc5F)c4C3=O)cc2)cn1 [Example 406, (4-fluoro-3-((2-(4-(1-methyl-1H-pyrazol-4-yl)benzyl)-3-oxo-2,3-dihydro-1H-pyrrolo[3,4-c]pyridin-4-yl)oxy)phenyl)acetonitrile]	40	97

— patent US9777005B2 (Takeda Pharmaceutical Company Limited, priority 2012, dated 2017)
